# Earlier results in patent publication US8461106B2, “Biofilm prevention using lactoferrin” (The Trustees of the University of Pennsylvania, priority 2007, dated 2013).
# Test system: pseudomonas biofilms
substance,measurement,value
gentamicin,MBEC for pseudomonas biofilms relative to MIC for planktonic pseudomonas,60 fold
